Experimental data published in PubChem BioAssay AID330 (DTP/NCI, 2004).
Inconclusive results and toxic doses are left out. How the source made its calls: active means survival T/C of 150% or more; inactive means T/C below 125% in these data.

Tested on: P388 leukemia ip, CD2F1 mice, survival T/C
Experiment: NCI In Vivo Anticancer Drug Screen. Data for tumor model P388 Leukemia (intraperitoneal) in CD2F1 (CDF1) mice
Conditions: endpoint: median survival time, higher = longer survival
Method in brief: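 Mice carrying the transplanted tumor received test compound or vehicle. Survival was recorded in each group, and the value is the treated-group measurement divided by that of the vehicle-treated control group.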

[1] = dose: 50.0 mg/kg/injection, schedule: Q01DX009 (ip), vehicle: distilled water + Tween-80
[2] = dose: 50.0 mg/kg/injection, schedule: Q01DX005 (ip), vehicle: Klucel (hydroxypropylcellulose) (HPC)
[3] = dose: 100.0 mg/kg/injection, schedule: Q01DX005 (ip), vehicle: Klucel (hydroxypropylcellulose) (HPC)
[4] = dose: 50.0 mg/kg/injection, schedule: Q01DX005 (ip), vehicle: saline with Tween-80
[5] = dose: 100.0 mg/kg/injection, schedule: Q01DX005 (ip), vehicle: saline with Tween-80
[6] = dose: 200.0 mg/kg/injection, schedule: Q01DX005 (ip), vehicle: saline with Tween-80
[7] = dose: 200.0 mg/kg/injection, schedule: Q01DX005 (ip), vehicle: Klucel (hydroxypropylcellulose) (HPC)
[8] = dose: 100.0 mg/kg/injection, schedule: Q01DX001 (ip), vehicle: Klucel (hydroxypropylcellulose) (HPC)
[9] = dose: 200.0 mg/kg/injection, schedule: Q01DX001 (ip), vehicle: Klucel (hydroxypropylcellulose) (HPC)
[10] = dose: 400.0 mg/kg/injection, schedule: Q01DX001 (ip), vehicle: Klucel (hydroxypropylcellulose) (HPC)
[11] = dose: 60.0 mg/kg/injection, schedule: Q01DX005 (ip), vehicle: saline with Tween-80
[12] = dose: 120.0 mg/kg/injection, schedule: Q01DX005 (ip), vehicle: saline with Tween-80
[13] = dose: 240.0 mg/kg/injection, schedule: Q01DX005 (ip), vehicle: saline with Tween-80
[14] = dose: 50.0 mg/kg/injection, schedule: Q01DX009 (ip), vehicle: saline
[15] = dose: 100.0 mg/kg/injection, schedule: Q01DX009 (ip), vehicle: saline
[16] = dose: 25.0 mg/kg/injection, schedule: Q01DX009 (ip), vehicle: saline

Measured: T/C

NC(=O)CCNC(=O)OCc1ccccc1
inactive: dose: 12.5 mg/kg/injection, schedule: Q01DX009 (ip), vehicle: distilled water + Tween-80 105 % of control | dose: 25.0 mg/kg/injection, schedule: Q01DX009 (ip), vehicle: distilled water + Tween-80 103 % of control | [1] 103 % of control | dose: 100.0 mg/kg/injection, schedule: Q01DX009 (ip), vehicle: distilled water + Tween-80 104 % of control | dose: 200.0 mg/kg/injection, schedule: Q01DX009 (ip), vehicle: distilled water + Tween-80 100 % of control

C=CC(C)(C)C(O)C=C(C)C (centres undefined)
inactive: dose: 100.0 mg/kg/injection, schedule: Q04DX002 (ip), vehicle: saline with Tween-80 99 % of control | dose: 200.0 mg/kg/injection, schedule: Q04DX002 (ip), vehicle: saline with Tween-80 100 % of control | dose: 400.0 mg/kg/injection, schedule: Q04DX002 (ip), vehicle: saline with Tween-80 101 % of control

C[Si]1(C)CC[Si](C)(C)OS(=O)(=O)CS(=O)(=O)O1
inactive: [2] 100 % of control | [3] 105 % of control

O=c1[nH]ncc2c1Sc1cn[nH]c(=O)c1S2
inactive: [4] 97 % of control | [5] 104 % of control | [6] 100 % of control

COc1cc(CC2C(=O)OCC2Cc2cc(OC)c(O)c(C(CO)C(O)c3ccc(O)c(OC)c3)c2)ccc1O (centres undefined)
inactive: dose: 5.0 mg/kg/injection, schedule: Q01DX009 (ip), vehicle: saline 96 % of control | dose: 10.0 mg/kg/injection, schedule: Q01DX009 (ip), vehicle: saline 107 % of control | dose: 20.0 mg/kg/injection, schedule: Q01DX009 (ip), vehicle: saline 105 % of control | dose: 40.0 mg/kg/injection, schedule: Q01DX009 (ip), vehicle: saline 102 % of control

CNC(=O)OCc1c(COC(=O)NC)c(-c2ccccc2)n(C)c1C
inactive: [1] 90 % of control

CCOC(=O)C1=C(C)NC(=O)NC1c1ccc(N(C)C)cc1 (centres undefined)
inactive: [2] 90 % of control | [3] 95 % of control | [7] 97 % of control

CC(Br)C(C)(C)OO (centres undefined)
inactive: [8] 101 % of control | [9] 95 % of control | [10] 100 % of control

COc1cc(C(=O)c2ccc3c(c2)OCO3)cc(OC)c1OC
inactive: [2] 98 % of control | [3] 93 % of control | [7] 99 % of control

CCOC(=O)C12CCOC1(OC)NC(=O)C=C2C(=O)OC (centres undefined)
inactive: dose: 100.0 mg/kg/injection, schedule: Q04DX003 (ip), vehicle: Klucel (hydroxypropylcellulose) (HPC) 110 % of control | dose: 200.0 mg/kg/injection, schedule: Q04DX003 (ip), vehicle: Klucel (hydroxypropylcellulose) (HPC) 110 % of control | dose: 400.0 mg/kg/injection, schedule: Q04DX003 (ip), vehicle: Klucel (hydroxypropylcellulose) (HPC) 118 % of control

C/C(=N\NC(=O)Cc1ccccc1)C(=O)O
inactive: [2] 100 % of control | [3] 89 % of control | [7] 94 % of control

C(CCc1nn[nH]n1)CCC1CCCCC1
inactive: [4] 96 % of control | [5] 107 % of control

CN1CCOc2c1cnn(CCO)c2=O
inactive: [11] 108 % of control | [12] 108 % of control | [13] 102 % of control

C/C(=N/NS(=O)(=O)c1ccc(C)cc1)C(=NO)/C(C)=N\NS(=O)(=O)c1ccc(C)cc1
inactive: [14] 92 % of control | [15] 100 % of control | dose: 200.0 mg/kg/injection, schedule: Q01DX009 (ip), vehicle: saline 101 % of control

CN(C)C(=Nc1ccccc1)OC1=C/C(=C2/C=C(OC(=Nc3ccccc3)N(C)C)N=C2OC(=Nc2ccccc2)N(C)C)C(OC(=Nc2ccccc2)N(C)C)=N1
inactive: [8] 106 % of control | [9] 106 % of control | [10] 104 % of control

CNS(=O)(=O)O
inactive: dose: 12.5 mg/kg/injection, schedule: Q01DX009 (ip), vehicle: saline 86 % of control | [16] 104 % of control | [14] 105 % of control | [15] 100 % of control

O=c1[nH]c(-c2ccc(Cl)cc2)nc2sc3c(c12)CCCC3
inactive: [2] 86 % of control | [3] 90 % of control | [7] 99 % of control

COc1ccccc1C(C)c1cc2c(cc1OC)OCO2 (centres undefined)
inactive: [4] 100 % of control | [5] 101 % of control | [6] 93 % of control

O=C1CC(=O)N2CCSC2=N1
inactive: dose: 50.0 mg/kg/injection, schedule: Q04DX003 (ip), vehicle: saline with Tween-80 102 % of control | dose: 100.0 mg/kg/injection, schedule: Q04DX003 (ip), vehicle: saline with Tween-80 101 % of control | dose: 200.0 mg/kg/injection, schedule: Q04DX003 (ip), vehicle: saline with Tween-80 102 % of control | dose: 400.0 mg/kg/injection, schedule: Q04DX003 (ip), vehicle: saline with Tween-80 98 % of control

CCOC(=O)C(NC(=O)C(CO)n1c(-c2ccccc2)c(-c2ccccc2)oc1=O)C(=O)OCC (centres undefined)
inactive: [11] 105 % of control | [12] 104 % of control | [13] 90 % of control

CCCCC(CN(C)C)C(=O)/C=C/c1ccccc1 (centres undefined)
inactive: dose: 60.0 mg/kg/injection, schedule: Q01DX005 (ip), vehicle: saline 109 % of control | dose: 120.0 mg/kg/injection, schedule: Q01DX005 (ip), vehicle: saline 123 % of control

CC1(Cc2ccccc2)NC(=O)NC1=O (centres undefined)
inactive: dose: 50.0 mg/kg/injection, schedule: Q01DX009 (ip), vehicle: Klucel (hydroxypropylcellulose) (HPC) 100 % of control | dose: 100.0 mg/kg/injection, schedule: Q01DX009 (ip), vehicle: Klucel (hydroxypropylcellulose) (HPC) 104 % of control | dose: 200.0 mg/kg/injection, schedule: Q01DX009 (ip), vehicle: Klucel (hydroxypropylcellulose) (HPC) 105 % of control

Clc1ccccc1OCc1cnc[nH]1
inactive: [16] 102 % of control | [14] 111 % of control | [15] 117 % of control
